PubChem BioAssay AID1963959 (Molecular Pharmacology Branch, DTP, NCI, 2024)

Test system: T-47D spheroids with HUVEC/MSC, viability
Assay: Anticancer human tumor T-47D cell line growth inhibition [PI3K];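 further: spheroids exposed to agents for seven days before reading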;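 on viability, T/C: percent of DMSO vehicle control luminescence so 100% = untreated growth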
Conditions: for viability, T/C: stronger effect = lower value
Method in brief: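 Tumor cells grown as multi-cell spheroids with HUVEC endothelial cells and MSC fibroblast-like stroma were treated with targeted agents combined with inavolisib, alpelisib, duvelisib or copanlisib. Doses fell in half-log steps from near clinical Cmax, else from 10 microM. Viability was measured.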

[1] = curve of first compound, second compound 0.0316 µM
[2] = curve of first compound, second compound 0.1 µM
[3] = curve of first compound, second compound 0.316 µM
[4] = curve of first compound, second compound 1 µM
[5] = curve of first compound, second compound 3.16 µM
[6] = curve of first compound, second compound 10 µM
[7] = second compound 0.0316 µM, first compound 0.0316 µM
[8] = second compound 0.0316 µM, first compound 0.1 µM
[9] = second compound 0.0316 µM, first compound 0.316 µM
[10] = second compound 0.0316 µM, first compound 1 µM
[11] = second compound 0.0316 µM, first compound 3.16 µM
[12] = second compound 0.0316 µM, first compound 10 µM
[13] = second compound 0.1 µM, first compound 0.0316 µM
[14] = second compound 0.1 µM, first compound 0.1 µM
[15] = second compound 0.1 µM, first compound 0.316 µM
[16] = second compound 0.1 µM, first compound 1 µM
[17] = second compound 0.1 µM, first compound 3.16 µM
[18] = second compound 0.1 µM, first compound 10 µM
[19] = second compound 0.316 µM, first compound 0.0316 µM
[20] = second compound 0.316 µM, first compound 0.1 µM
[21] = second compound 0.316 µM, first compound 0.316 µM
[22] = second compound 0.316 µM, first compound 1 µM
[23] = second compound 0.316 µM, first compound 3.16 µM
[24] = second compound 0.316 µM, first compound 10 µM
[25] = second compound 1 µM, first compound 0.0316 µM
[26] = second compound 1 µM, first compound 0.1 µM
[27] = second compound 1 µM, first compound 0.316 µM
[28] = second compound 1 µM, first compound 1 µM
[29] = second compound 1 µM, first compound 3.16 µM
[30] = second compound 1 µM, first compound 10 µM
[31] = second compound 3.16 µM, first compound 0.0316 µM
[32] = second compound 3.16 µM, first compound 0.1 µM
[33] = second compound 3.16 µM, first compound 0.316 µM
[34] = second compound 3.16 µM, first compound 1 µM
[35] = second compound 3.16 µM, first compound 3.16 µM
[36] = second compound 3.16 µM, first compound 10 µM
[37] = second compound 10 µM, first compound 0.0316 µM
[38] = second compound 10 µM, first compound 0.1 µM
[39] = second compound 10 µM, first compound 0.316 µM
[40] = second compound 10 µM, first compound 1 µM
[41] = second compound 10 µM, first compound 3.16 µM
[42] = second compound 10 µM, first compound 10 µM

## C#Cc1c(F)ccc2cc(O)cc(-c3ncc4c(N5CC6CCC(C5)N6)nc(OCC56CCCN5CC(F)C6)nc4c3F)c12 (centres undefined) + CC(Nc1ncnc2nc[nH]c12)c1cc2cccc(Cl)c2c(=O)n1-c1ccccc1
[1]
  IC50: > 10 µM
[2]
  IC50: > 10 µM
[3]
  IC50: > 10 µM
[4]
  IC50: > 10 µM
[5]
  IC50: > 10 µM
[6]
  IC50: > 10 µM
[7]
  viability, T/C: 101%
[8]
  viability, T/C: 116%
[9]
  viability, T/C: 96.5%
[10]
  viability, T/C: 106%
[11]
  viability, T/C: 102%
[12]
  viability, T/C: 104%
[13]
  viability, T/C: 96.4%
[14]
  viability, T/C: 86.3%
[15]
  viability, T/C: 106%
[16]
  viability, T/C: 106%
[17]
  viability, T/C: 110%
[18]
  viability, T/C: 89.3%
[19]
  viability, T/C: 109%
[20]
  viability, T/C: 80.9%
[21]
  viability, T/C: 104%
[22]
  viability, T/C: 95.2%
[23]
  viability, T/C: 106%
[24]
  viability, T/C: 97.8%
[25]
  viability, T/C: 92.4%
[26]
  viability, T/C: 116%
[27]
  viability, T/C: 97.5%
[28]
  viability, T/C: 76.7%
[29]
  viability, T/C: 116%
[30]
  viability, T/C: 93.1%
[31]
  viability, T/C: 92.6%
[32]
  viability, T/C: 93.5%
[33]
  viability, T/C: 101%
[34]
  viability, T/C: 84.3%
[35]
  viability, T/C: 86.8%
[36]
  viability, T/C: 86%
[37]
  viability, T/C: 107%
[38]
  viability, T/C: 91.3%
[39]
  viability, T/C: 109%
[40]
  viability, T/C: 87.9%
[41]
  viability, T/C: 97.3%
[42]
  viability, T/C: 89.6%

## CCN1CCN(Cc2ccc(Nc3ncc(F)c(-c4cc(F)c5nc(C)n(C(C)C)c5c4)n3)nc2)CC1
Compound 0.00316 µM
  viability, T/C: 104% [middle of 4 runs]
Compound 0.01 µM
  viability, T/C: 91.4% [middle of 4 runs]
Compound 0.0316 µM
  viability, T/C: 102% [middle of 4 runs]
Compound 0.1 µM
  viability, T/C: 90.4% [middle of 4 runs]
Compound 0.316 µM
  viability, T/C: 90.4% [middle of 4 runs]
Compound 1 µM
  viability, T/C: 91.2% [middle of 4 runs]
Curve of compound
  IC50: > 1 µM

## CCCS(=O)(=O)Nc1ccc(F)c(C(=O)c2c[nH]c3ncc(-c4ccc(Cl)cc4)cc23)c1F + Cc1nc(NC(=O)N2CCCC2C(N)=O)sc1-c1ccnc(C(C)(C)C(F)(F)F)c1
[1]
  IC50: 9.2 µM
[2]
  IC50: 8.1 µM
[3]
  IC50: 7.63 µM
[4]
  IC50: 7.35 µM
[5]
  IC50: 4.41 µM
[6]
  IC50: < 0.0316 µM
[7]
  viability, T/C: 95.4%
[8]
  viability, T/C: 92.7%
[9]
  viability, T/C: 100%
[10]
  viability, T/C: 94.4%
[11]
  viability, T/C: 108%
[12]
  viability, T/C: 46.1%
[13]
  viability, T/C: 93.1%
[14]
  viability, T/C: 92.5%
[15]
  viability, T/C: 107%
[16]
  viability, T/C: 91.4%
[17]
  viability, T/C: 85.9%
[18]
  viability, T/C: 41.7%
[19]
  viability, T/C: 99.8%
[20]
  viability, T/C: 93%
[21]
  viability, T/C: 89.3%
[22]
  viability, T/C: 90.5%
[23]
  viability, T/C: 76%
[24]
  viability, T/C: 41.7%
[25]
  viability, T/C: 83.5%
[26]
  viability, T/C: 82.3%
[27]
  viability, T/C: 81.5%
[28]
  viability, T/C: 78.3%
[29]
  viability, T/C: 78.4%
[30]
  viability, T/C: 39.7%
[31]
  viability, T/C: 75.3%
[32]
  viability, T/C: 76.9%
[33]
  viability, T/C: 79%
[34]
  viability, T/C: 81.5%
[35]
  viability, T/C: 56%
[36]
  viability, T/C: 35%
[37]
  viability, T/C: 35.3%
[38]
  viability, T/C: 40.7%
[39]
  viability, T/C: 41.2%
[40]
  viability, T/C: 37.8%
[41]
  viability, T/C: 38.3%
[42]
  viability, T/C: 32.8%

## C=CC(=O)N1CCN(c2nc(=O)n(-c3c(C)ccnc3C(C)C)c3nc(-c4c(O)cccc4F)c(F)cc23)C(C)C1 (centres undefined) + CC(Nc1ncnc2nc[nH]c12)c1cc2cccc(Cl)c2c(=O)n1-c1ccccc1
[1]
  IC50: > 10 µM
[2]
  IC50: > 10 µM
[3]
  IC50: > 10 µM
[4]
  IC50: > 10 µM
[5]
  IC50: > 10 µM
[6]
  IC50: > 10 µM
[7]
  viability, T/C: 98.2%
[8]
  viability, T/C: 80.2%
[9]
  viability, T/C: 93.8%
[10]
  viability, T/C: 92.8%
[11]
  viability, T/C: 105%
[12]
  viability, T/C: 112%
[13]
  viability, T/C: 121%
[14]
  viability, T/C: 73%
[15]
  viability, T/C: 90.1%
[16]
  viability, T/C: 86.4%
[17]
  viability, T/C: 115%
[18]
  viability, T/C: 139%
[19]
  viability, T/C: 107%
[20]
  viability, T/C: 110%
[21]
  viability, T/C: 93.6%
[22]
  viability, T/C: 85.3%
[23]
  viability, T/C: 89.6%
[24]
  viability, T/C: 117%
[25]
  viability, T/C: 74.3%
[26]
  viability, T/C: 89.2%
[27]
  viability, T/C: 88.5%
[28]
  viability, T/C: 98.4%
[29]
  viability, T/C: 118%
[30]
  viability, T/C: 115%
[31]
  viability, T/C: 75.5%
[32]
  viability, T/C: 92.3%
[33]
  viability, T/C: 94%
[34]
  viability, T/C: 94.1%
[35]
  viability, T/C: 107%
[36]
  viability, T/C: 122%
[37]
  viability, T/C: 100%
[38]
  viability, T/C: 92.5%
[39]
  viability, T/C: 94%
[40]
  viability, T/C: 112%
[41]
  viability, T/C: 106%
[42]
  viability, T/C: 113%

## Cn1cnc2c(F)c(Nc3ccc(Br)cc3Cl)c(C(=O)NOCCO)cc21
Compound 0.00949 µM
  viability, T/C: 98.5% [middle of 4 runs]
Compound 0.0949 µM
  viability, T/C: 95.3% [middle of 4 runs]
Compound 0.3 µM
  viability, T/C: 98.9% [middle of 4 runs]
Compound 0.949 µM
  viability, T/C: 88% [middle of 4 runs]
Compound 3 µM
  viability, T/C: 95.5% [middle of 4 runs]
Curve of compound
  IC50: > 3 µM
